Like-named read-outs stand apart in the source and are kept apart here.
Tests used:
[1] = tested on: spontaneously hypertensive rats (aparalytic SHR; male); test: Test for hypotensive activity; type: in vivo; details: for HR / T 1/2 / Peak: 300 µg/kg into the abdominal aorta of SHR; for MaxΔMBP: 300 µg/kg into the abdominal aorta of SHR through a canula, blood pressure by pressure transducer; for T 1/2: half time of the hypotensive effect; for Peak: time of peak of the hypotensive effect
Description: The test was carried out by employing spontaneously hypertensive rats (aparalytic SHR; male) according to Nakao et al method.
300 µg/kg of the compound to be tested was administrated into the abdominal aorta of SHR through a canula (previously inserted). The blood pressures in the whole body of the rats were measured with a pressure transducer (MPU-0.5, made by Nihon Koden K.K.).

[2] = tested on: thoracic aortas of rabbits; test: Test for activity of inhibiting KCl-induced contraction; type: cell-based, rabbits (Japanese white rabbit; male); details: 3x10⁻⁶ M compound; 30 mM KCl; helical strips in Krebs-Henseleit solution at 37°C; determined in 60 minutes
Description: Herical strips of thoracic aortas of rabbits (Japanese white rabbit; male) were mounted vertically in organ baths of Krebs-Henselit solution at 37°C for 90 minutes, and then 30 mM of KCl was added to the baths. After 30 minutes, the compound to be tested was added to the baths, and the variations in the tension were recorded by an isometric kymograph, so that the inhibitory activity of the compound was determined in 60 minutes.

[3] = tested on: platelet rich plasma; test: Test for platelet aggregation-inhibiting activity in rabbit platelet rich plasma; type: cell-based, rabbit (Japanese white; male); details: Oryctolagus cuniculus, 0.5 h, 30 minutes incubation in PRP
Description: The mixture was centrifuged at 1100 rpm at 20°C for 15 minutes. The upper layer is a platelet rich plasma (RRP), and the lower layer was centrifuged at 2500 rpm at 20°C for 10 minutes, so that a platelet poor plasma (PPP) was obtained.
10 µℓ of a solution of the compound to be tested with a concentration of 10⁻⁴ moℓ/ℓ was added to 200 µℓ of PRP, and the mixture was subjected to incubation for 30 minutes. To the mixture was added 10 µℓ of a platelet activating factor (PAF)(10 µg/mℓ), or arachidonic acid (AA)(1 mM at final concentration). The extent of the aggregation was measured by Agricometer (NKK, PAT-4A).

Compound	HR [1] [beats/min]	MaxΔMBP [1] [mmHg]	T 1/2 [1] [min]	Peak [1] [min]	Inhibitory Effect on KCℓ-induced contraction(%) [2] [%]	IC50 ([3]; aggregation induced by platelet activating factor (PAF) 10 µg/ml, read-out: IC₅₀ (M) PAF(10 µg/ml)) [M]	IC50 ([3]; Platelet, aggregation induced by arachidonic acid (AA) 1 mM at final concentration, read-out: IC₅₀ (M) AA(1 mM)) [M]
COC(=O)C1=C(C)NC(C)=C(C(=O)OC/C=C/c2ccc(Cn3ccnc3)cc2)C1c1cccc([N+](=O)[O-])c1 (single isomer, unassigned; (+)) [Example 36, (+)-3-[4-(1-imidazolylmethyl)phenyl]-2-propen-1-yl methyl-1,4-dihydro-2,6-dimethyl-4-(3-nitrophenyl)pyridine-3,5-dicarboxylate]	49.0	51.4	3.4	0.9	51.1 ± 11.6	0.00011	0.00014
(-)-3-[4-(-(1-imidazolylmethyl)phenyl]-2-propen-1-yl methyl-1, 4-dihydro-2,6-dimethyl-4-(3-nitrophenyl)pyridine-3,5-dicarboxylate [Example 37]	3.7	10.8	0.4	0.6	16.8 ± 9.8		

— patent EP0403957A2, “Optical active 1,4-dihydropyridine derivates” (FUJIREBIO INC., priority 1989, dated 1990)
